From patent US8946439B2, “Amide compounds, compositions and uses thereof” (Evotec AG, priority 2008, dated 2015)

Experiments:
[1] = target: T1, hP2X2/3H (Homo sapiens, UniProt P56373+Q9UBL9); test: Calcium uptake assay (P2X antagonist assay), P2X2/3 heteromer; assay type: cell-based; conditions: calcium uptake assay, hP2X2/3H; read-out: IC50 hP2X2/3H (nM), Ca Influx
T1 construct: expressed in transfected cells; host or cells: e.g. HEK293 or 1321N1
T1 sequence (Q9UBL9 1-471): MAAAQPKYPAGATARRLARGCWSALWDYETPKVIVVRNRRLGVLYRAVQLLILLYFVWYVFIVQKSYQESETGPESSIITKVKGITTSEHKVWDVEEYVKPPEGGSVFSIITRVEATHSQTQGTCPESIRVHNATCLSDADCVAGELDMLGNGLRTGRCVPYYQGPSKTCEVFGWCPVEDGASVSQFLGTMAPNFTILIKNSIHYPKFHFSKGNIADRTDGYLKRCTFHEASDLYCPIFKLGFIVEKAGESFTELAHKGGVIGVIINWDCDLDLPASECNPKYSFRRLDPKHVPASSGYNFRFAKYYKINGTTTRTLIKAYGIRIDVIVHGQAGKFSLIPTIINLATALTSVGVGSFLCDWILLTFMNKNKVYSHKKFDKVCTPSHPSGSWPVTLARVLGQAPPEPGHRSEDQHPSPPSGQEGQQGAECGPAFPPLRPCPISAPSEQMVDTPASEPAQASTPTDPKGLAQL
T1 sequence (P56373 1-397): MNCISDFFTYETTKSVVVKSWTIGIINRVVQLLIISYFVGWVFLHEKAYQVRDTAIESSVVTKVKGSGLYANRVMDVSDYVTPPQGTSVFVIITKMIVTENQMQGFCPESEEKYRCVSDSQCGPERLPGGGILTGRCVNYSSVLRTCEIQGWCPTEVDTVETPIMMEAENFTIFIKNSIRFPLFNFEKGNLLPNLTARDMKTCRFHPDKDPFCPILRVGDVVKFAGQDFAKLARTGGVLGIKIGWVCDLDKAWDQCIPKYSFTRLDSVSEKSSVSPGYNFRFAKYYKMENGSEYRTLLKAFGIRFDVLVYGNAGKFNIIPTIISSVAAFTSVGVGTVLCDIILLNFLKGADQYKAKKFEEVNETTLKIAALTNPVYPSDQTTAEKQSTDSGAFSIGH
Text: (§1) The human P2X2/3 chimera clone is created as described by Neelands et al, and then cloned into an expression vector as above. Receptors are expressed in cells (e.g., HEK293 or 1321N1 (obtained from the ECACC)) via transient transfection using standard lipid mediated transfection, or by creation of stable transfectants for each receptor. For expression of the P2X2/3 heteromeric receptor, the P2X3 expression vector is stably transfected into a cell line already stably expressing P2X2. P2X2/3 heteromer function is isolated using pharmacological methods. Cell lines are maintained in DMEM+5% Glutamax, the appropriate level of selective antibiotic, and 10% heat inactivated FBS.
(§2) Functional activity of compounds at the P2X receptor is determined by measuring their ability to inhibit agonist-induced calcium influx. Compounds are tested for antagonist activity against the P2X2/3 chimera, the P2X3 homomer, or the P2X2/3 heteromer. At the start of each screening day, the agonist EC50 is determined. Compound % inhibition or IC50s are subsequently determined using a predetermined agonist concentration (EC50-90 depending on cell line) as a stimulus. The agonists used are αβMeATP, ATP, or other ATP analogs. Compounds may be tested at concentrations ranging from 1 pM to 10 μM.
(§3) To test for antagonist activity, cells expressing the appropriate receptor are seeded onto 96 or 384 well plates 18-24 hours prior to assay. […] Plates are incubated at 37° C. and then equilibrated at room temperature. Antagonism of agonist-induced calcium influx is measured using a fluorescent imaging plate reader (e.g. FLIPR^TETRA, Molecular Devices, Sunnyvale, Calif.). The assay comprises two stages: a pre-treatment phase followed by a treatment phase. Compounds may be tested as follows: For the pre-treatment phase, 50 μL of 3× concentration of test compound in HBSS is added to cells containing […], of dye loading media to achieve a final concentration of 1× test compound. For the treatment phase, at a set interval after pre-treatment (1-30 minutes), 50 μL of 1× test compound plus 4× agonist solution is added, resulting in a final concentration of 1× compound and 1× agonist. […] Responses are measured as (peak fluorescence after agonist addition) minus (baseline fluorescence prior to treatment). Percent inhibition is calculated as follows:
(§4) [formula] IC50 values are determined by analyzing dose response data in a 4 parameter logistic fit using GraphPad Prizm.

[2] = target: T2, hP2X3 (Homo sapiens, UniProt P56373); test: Calcium uptake assay (P2X antagonist assay), P2X3 homomer; assay type: cell-based; conditions: calcium uptake assay, hP2X3; read-out: IC50 hP2X3 (nM), Ca Influx
T2 construct: expressed in transfected cells; host or cells: e.g. HEK293 or 1321N1
T2 sequence (P56373 1-397): T1 sequence (P56373 1-397)
Text: as §1, §2, §3, §4

SMILES | IC50 [1] [nM] | IC50 [2] [nM]
Cc1ccc(-c2cc(C(=O)NCc3cnc(C)nc3)cc(C(=O)NCc3cnc(C)nc3)c2)cc1 [Compound 16, 4′-Methyl-N3,N5-bis((2-methylpyrimidin-5-yl)methyl)biphenyl-3,5-dicarboxamide] | 100 to 500 | 100 to 500
Cc1ccc(-c2cc(C(=O)NCc3cnc(C)nc3)cc(C(=O)N3CC(F)(F)C3)c2)cc1 [Compound 17, 5-(3,3-Difluoroazetidine-1-carbonyl)-4′-methyl-N-((2-methylpyrimidin-5-yl)methyl)biphenyl-3-carboxamide] | < 100 | < 100
Cc1ccc(-c2cc(C(=O)NCc3cnc(C)nc3)cc(C(=O)N3CCCCC3)c2)cc1 [Compound 18, 4′-Methyl-N-((2-methylpyrimidin-5-yl)methyl)-5-(piperidine-1-carbonyl)biphenyl-3-carboxamide] | < 100 | < 100
Cc1ccc(-c2cc(C(=O)NCc3cnc(C)nc3)cc(C(=O)N3CCCCCC3)c2)cc1 [Compound 19, 5-(Azepane-1-carbonyl)-4′-methyl-N-((2-methylpyrimidin-5-yl)methyl)biphenyl-3-carboxamide] | < 100 | < 100
Cc1ccc(-c2cc(C(=O)NCc3cnc(C)nc3)cc(C(=O)N3CCCC3)c2)cc1 [Compound 20, 4′-Methyl-N-((2-methylpyrimidin-5-yl)methyl)-5-(pyrrolidine-1-carbonyl)biphenyl-3-carboxamide] | < 100 | < 100
Cc1ccc(-c2cc(C(=O)O)cc(C(=O)NCc3cnc(C)nc3)c2)cc1 [Compound 21, 4′-Methyl-5-((2-methylpyrimidin-5-yl)methylcarbamoyl)biphenyl-3-carboxylic acid] | > 1000 | 100 to 500
Cc1ccc(-c2cc(C(=O)NCc3cnc(C)nc3)cc(S(C)(=O)=O)c2)cc1 [Compound 22, 4′-Methyl-N-((2-methylpyrimidin-5-yl)methyl)-5-(methylsulfonyl)biphenyl-3-carboxamide] | 100 to 500 | < 100
Cc1ccc(-c2cc(C(=O)NCc3ccc4cccnc4c3)cc(S(C)(=O)=O)c2)cc1 [Compound 23] | 100 to 500 | 100 to 500
Cc1ccc(-c2cc(C(=O)NCc3cnc(C)nc3)cc(C(=O)N3CCOCC3)c2)cc1 [Compound 24] | 100 to 500 | < 100
Cc1ccc(-c2cc(C(=O)NCc3cnc(C)nc3)cc(C(=O)N3CCN(C)CC3)c2)cc1 [Compound 25] | 100 to 500 | < 100

Further lines, results first:

IC50 [1] [nM] | IC50 [2] [nM] | SMILES
< 100 | < 100 | Cc1ccc(-c2cc(C(=O)NC(C)c3ccc(Cl)c(S(C)(=O)=O)c3)cc(S(C)(=O)=O)c2)cc1 (stereo not shown) [Compound 26]
501 to 1000 | < 100 | Cc1ccc(-c2cc(C(=O)NCc3cnc(C)nc3)cc(C(=O)N3CCN(C)C(=O)C3)c2)cc1 [Compound 27]
100 to 500 | < 100 | Cc1ccc(-c2cc(C(=O)NCc3cnc(C)nc3)cc(C(=O)N3CCCC3)c2)nc1 [Compound 28, 3-(5-Methylpyridin-2-yl)-N-((2-methylpyrimidin-5-yl)methyl)-5-(pyrrolidine-1-carbonyl)benzamide]
< 100 | < 100 | Cc1ccc(-c2cc(C(=O)NCc3cnc(C)nc3)cc(C(=O)N3CC(O)C3)c2)cc1 [Compound 29, 5-(3-Hydroxyazetidine-1-carbonyl)-4′-methyl-N-((2-methylpyrimidin-5-yl)methyl)biphenyl-3-carboxamide]
< 100 | < 100 | Cc1ccc(-c2cc(C(=O)NCc3cnc(C)nc3)cc(C(=O)N3CCC3)c2)cc1 [Compound 30]
501 to 1000 | < 100 | Cc1ccc(-c2cc(C(=O)NCc3cnc(C)nc3)cc(C(=O)N3CC3C)c2)cc1 (stereo not shown) [Compound 31, 4′-Methyl-5-(2-methylaziridine-1-carbonyl)-N-((2-methylpyrimidin-5-yl)methyl)biphenyl-3-carboxamide]
< 100 | < 100 | COC1CCN(C(=O)c2cc(C(=O)NCc3cnc(C)nc3)cc(-c3ccc(C)cc3)c2)C1 (stereo not shown) [Compound 32]
